The experiment concerns Male C57BL/6 mice. Nature of the experiment: oral glucose tolerance test in mice. The experiment is classed as in vivo. To be noted: oral glucose 3 g/kg at 0 min, versus vehicle. As for the experimental part: All animal experiments described below and listed in Table 1 were performed in accordance to Austrian law and the principles of good laboratory animal care. Data shown in Table 1 are obtained using commercially available male mice purchased, e.g. from the breeding facilities of Charles River Lab. (USA). Male C57BL/6 mice were used at the age of 7-30 weeks and had free access to a standard laboratory chow diet (kg/kg: <10% crude fat) and water except for defined fasting periods before experimentation. They were maintained at room temperature and a 12 h/12 h light-dark cycle.
The antidiabetic activities of the products listed in Table 1 were evaluated in oral glucose tolerance tests in mice, in analogy to the procedure known to the general physician. Mice were fasted for 8-12 hours prior to oral glucose tolerance testing. For biological testing, the products listed in Table 1 were dissolved or suspended in 0.5% carboxymethylcellulose containing 1-2% acetic acid. A control group receiving no test product was examined in parallel in each test run. The control group received the same amount of a 0.5% carboxymethylcellulose solution containing 1-2% acetic acid (vehicle). Administration of products listed in Table 1 or vehicle at T=−45 min was followed after 45 min by oral administration via gavage of a glucose solution (3 g/kg) at T=0 min. Blood was collected via puncture of the tip of the tail immediately before administration of products listed in Table 1 or vehicle, immediately before administration of glucose, and at T=30 min and/or T=90 and/or T=150 as the case may be. Blood glucose was determined using portable glucometers as commonly used in human diabetes.
The increment in blood glucose at T=min over levels measured at T=0 min was calculated for each animal. Mean values of the increment for treatment group and vehicle group were compared (typical group size n=6-10 mice). Percent reduction induced by products listed in Table 1 versus vehicle was the readout parameter for glucose-lowering activity. As listed in Table 1, an effect of 1 means a reduction of more than 15% of incremental blood glucose at the given time point T=min versus vehicle group.
Antidiabetic effects of products are listed in Table 1 as evaluated in a glucose tolerance test in mice.

Setting [1] is: product dose 45 mg/kg per os at -45 min, glucose measurement at 30 min.
[2] abbreviates: product dose 90 mg/kg per os at -45 min, glucose measurement at 30 min.

In the case of `CC1(c2ccc(F)cc2)CCC2(C)CC3(CCCO3)CCN2C1` (stereo not shown) [Product 5b, 7′-(4-fluorophenyl)-7′,9a′-dimethyldecahydro-3H-spiro[furan-2,2′-quinolizine]], under setting [1], the Antidiabetic activity is 1 (an effect of 1 means a reduction of more than 15% of incremental blood glucose at the given time point T=min versus vehicle group).

Take `CC1(c2ccc(F)cc2)CCC2(C)CC(=O)CCN2C1` (stereo not shown) [Product 3b, 7-(4-fluorophenyl)-7,9a-dimethyloctahydro-2H-quinolizin-2-one]: the Antidiabetic activity under setting [2] is listed as 1 (an effect of 1 means a reduction of more than 15% of incremental blood glucose at the given time point T=min versus vehicle group).

Turning to `CC1(c2ccc(F)cc2)CCC2(C)CC3(CCC(=O)O3)CCN2C1` (stereo not shown) [Product 6b, 7′-(4-fluorophenyl)-7′,9a′-dimethyldecahydro-5H-spiro[furan-2,2′-quinolizine]-5-one], the Antidiabetic activity under setting [1] is reported as 1 (an effect of 1 means a reduction of more than 15% of incremental blood glucose at the given time point T=min versus vehicle group).

With `CC1(c2ccccc2)CCC2(C)CC3(CCCO3)CCN2C1` (stereo not shown) [Product 5a, 7′,9a′-dimethyl-7′-phenyldecahydro-3H-spiro[furan-2,2′-quinolizine]], the Antidiabetic activity is reported as 1 (an effect of 1 means a reduction of more than 15% of incremental blood glucose at the given time point T=min versus vehicle group) (product dose 22.5 mg/kg per os at -45 min, glucose measurement at 30 min); 1 (an effect of 1 means a reduction of more than 15% of incremental blood glucose at the given time point T=min versus vehicle group) (product dose 90 mg/kg per os at -45 min, glucose measurement at 90 min); 1 (an effect of 1 means a reduction of more than 15% of incremental blood glucose at the given time point T=min versus vehicle group) (product dose 90 mg/kg per os at -45 min, glucose measurement at 150 min).

As for `CC1(c2ccccc2)CCC2(C)CC(=O)CCN2C1` (stereo not shown) [Product 3a, 7,9a-dimethyl-7-phenyloctahydro-2H-quinolizin-2-one], the Antidiabetic activity under setting [2] was 1 (an effect of 1 means a reduction of more than 15% of incremental blood glucose at the given time point T=min versus vehicle group).
